System: 931267-113-T-J1-PDC multicell spheroid viability
Assay: Anticancer human tumor 931267-113-T-J1-PDC patient-derived colon adenocarcinoma cell line growth inhibition [PI3K]
Details: for IC50: curve of first compound; for viability, T/C: stronger effect = lower value
Method in brief: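 Spheroid viability read-out. Co-cultures contained the tumor line plus HUVEC and human MSCs. Each agent was paired with a PI3K inhibitor (inavolisib, alpelisib, duvelisib, copanlisib) across half-log dilutions starting at clinical Cmax, or at 10 microM when Cmax was unknown.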

[1] = second compound 0.00316 µM, first compound 0.0316 µM
[2] = second compound 0.00316 µM, first compound 0.1 µM
[3] = second compound 0.00316 µM, first compound 0.316 µM
[4] = second compound 0.00316 µM, first compound 1 µM
[5] = second compound 0.00316 µM, first compound 3.16 µM
[6] = second compound 0.00316 µM, first compound 10 µM
[7] = second compound 0.01 µM, first compound 0.0316 µM
[8] = second compound 0.01 µM, first compound 0.1 µM
[9] = second compound 0.01 µM, first compound 0.316 µM
[10] = second compound 0.01 µM, first compound 1 µM
[11] = second compound 0.01 µM, first compound 3.16 µM
[12] = second compound 0.01 µM, first compound 10 µM
[13] = second compound 0.0316 µM, first compound 0.0316 µM
[14] = second compound 0.0316 µM, first compound 0.1 µM
[15] = second compound 0.0316 µM, first compound 0.316 µM
[16] = second compound 0.0316 µM, first compound 1 µM
[17] = second compound 0.0316 µM, first compound 3.16 µM
[18] = second compound 0.0316 µM, first compound 10 µM
[19] = second compound 0.1 µM, first compound 0.0316 µM
[20] = second compound 0.1 µM, first compound 0.1 µM
[21] = second compound 0.1 µM, first compound 0.316 µM
[22] = second compound 0.1 µM, first compound 1 µM
[23] = second compound 0.1 µM, first compound 3.16 µM
[24] = second compound 0.1 µM, first compound 10 µM
[25] = second compound 0.316 µM, first compound 0.0316 µM
[26] = second compound 0.316 µM, first compound 0.1 µM
[27] = second compound 0.316 µM, first compound 0.316 µM
[28] = second compound 0.316 µM, first compound 1 µM
[29] = second compound 0.316 µM, first compound 3.16 µM
[30] = second compound 0.316 µM, first compound 10 µM
[31] = second compound 1 µM, first compound 0.0316 µM
[32] = second compound 1 µM, first compound 0.1 µM
[33] = second compound 1 µM, first compound 0.316 µM
[34] = second compound 1 µM, first compound 1 µM
[35] = second compound 1 µM, first compound 3.16 µM
[36] = second compound 1 µM, first compound 10 µM
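Also: viability read 7 days after compound addition.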

C=CC(=O)N1CCN(c2nc(=O)n(-c3c(C)ccnc3C(C)C)c3nc(-c4c(O)cccc4F)c(F)cc23)C(C)C1 (centres undefined) + COc1c(OCCCN2CCOCC2)ccc2c3n(c(=NC(=O)c4cnc(N)nc4)nc12)CCN3
IC50 (second compound 0.00316 µM): > 10 µM
IC50 (second compound 0.01 µM): > 10 µM
IC50 (second compound 0.0316 µM): > 10 µM
IC50 (second compound 0.1 µM): > 10 µM
IC50 (second compound 0.316 µM): < 0.0316 µM
IC50 (second compound 1 µM): < 0.0316 µM
viability, T/C [1]: 107%
viability, T/C [2]: 107%
viability, T/C [3]: 101%
viability, T/C [4]: 95.3%
viability, T/C [5]: 103%
viability, T/C [6]: 101%
viability, T/C [7]: 102%
viability, T/C [8]: 106%
viability, T/C [9]: 91.4%
viability, T/C [10]: 99.4%
viability, T/C [11]: 103%
viability, T/C [12]: 81.1%
viability, T/C [13]: 95.5%
viability, T/C [14]: 98.3%
viability, T/C [15]: 90.4%
viability, T/C [16]: 85.1%
viability, T/C [17]: 86.5%
viability, T/C [18]: 79.1%
viability, T/C [19]: 71.2%
viability, T/C [20]: 68.6%
viability, T/C [21]: 70.5%
viability, T/C [22]: 73.7%
viability, T/C [23]: 71.4%
viability, T/C [24]: 62.5%
viability, T/C [25]: 49.5%
viability, T/C [26]: 44.1%
viability, T/C [27]: 47.6%
viability, T/C [28]: 51.5%
viability, T/C [29]: 52.3%
viability, T/C [30]: 46.6%
viability, T/C [31]: 35.1%
viability, T/C [32]: 29.1%
viability, T/C [33]: 35.1%
viability, T/C [34]: 35.3%
viability, T/C [35]: 36.5%
viability, T/C [36]: 32.5%

CC(C)NCC(C(=O)N1CCN(c2ncnc3c2C(C)CC3O)CC1)c1ccc(Cl)cc1 (centres undefined) + COc1c(OCCCN2CCOCC2)ccc2c3n(c(=NC(=O)c4cnc(N)nc4)nc12)CCN3
IC50 (second compound 0.00316 µM): > 10 µM
IC50 (second compound 0.01 µM): > 10 µM
IC50 (second compound 0.0316 µM): > 10 µM
IC50 (second compound 0.1 µM): > 10 µM
IC50 (second compound 0.316 µM): < 0.0316 µM
IC50 (second compound 1 µM): < 0.0316 µM
viability, T/C [1]: 94.2%
viability, T/C [2]: 96.2%
viability, T/C [3]: 94.3%
viability, T/C [4]: 94.7%
viability, T/C [5]: 95%
viability, T/C [6]: 71.1%
viability, T/C [7]: 96.3%
viability, T/C [8]: 93.7%
viability, T/C [9]: 93.2%
viability, T/C [10]: 91.2%
viability, T/C [11]: 97.8%
viability, T/C [12]: 71.4%
viability, T/C [13]: 84.9%
viability, T/C [14]: 84.9%
viability, T/C [15]: 81.8%
viability, T/C [16]: 81.6%
viability, T/C [17]: 83.3%
viability, T/C [18]: 65.8%
viability, T/C [19]: 67.8%
viability, T/C [20]: 71.1%
viability, T/C [21]: 71.6%
viability, T/C [22]: 69.7%
viability, T/C [23]: 67.5%
viability, T/C [24]: 55.7%
viability, T/C [25]: 43.6%
viability, T/C [26]: 44.8%
viability, T/C [27]: 44%
viability, T/C [28]: 47.7%
viability, T/C [29]: 49.2%
viability, T/C [30]: 44.1%
viability, T/C [31]: 32.9%
viability, T/C [32]: 30.8%
viability, T/C [33]: 35.8%
viability, T/C [34]: 31%
viability, T/C [35]: 42%
viability, T/C [36]: 33.3%

Reference: PubChem BioAssay AID1963970 (Molecular Pharmacology Branch, DTP, NCI, 2024)
